For 10 compounds, IC50 and EC50 results are on record in US10981932B2, “Macrocyclic indole derivatives” (Bayer Aktiengesellschaft, priority 2016, dated 2021).

Where “and” joins values, the source holds several entries; their conditions need not be identical. Identical values can stand only once. Counter-ions that a name gives are not always drawn. Like-named read-outs stand apart in the source and are kept apart here.

The term EC50 denotes the concentration needed to bring the measured effect to its halfway point. Read a low EC50 as an effect from little substance.

For series [1], the target named is MCL-1 (Homo sapiens, UniProt Q07820). In words: Protein-protein interaction assay MCL-1/Noxa BH3 peptide (MCL-1 assay), TR-FRET. Format: binding. As to conditions: MBP-MCL-1 / Noxa BH3-derived peptide, median. Put shortly: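 IC50 came from a 4-parameter fit of the normalized 665/620 nm TR-FRET ratio (anti-MBP Eu-cryptate/streptavidin-XL665). Compounds (0.1 nM–20 μM, duplicates) were preincubated 10 min at 22 °C with 1 nM MBP-MCL-1 in pH 7 Tris/NaCl/KF buffer, then read after 1 h at 22 °C plus overnight at 4 °C.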

Series [2] relates to SUDHL5. In words: Induction of caspase-3/7 activity (Caspase-Glo 3/7), SUDHL5. It is filed as cell-based. The settings on record: caspase-3/7 induction, SUDHL5 cells, 3 h treatment, median. Put shortly:
(§1)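 DLBCL lines SUDHL5 and SUDHL10 treated with compounds for 3 h at 37 °C; caspase-3/7 activity read by Caspase-Glo 3/7 luminescence. Medium-only background subtracted; EC50 fitted with bottom fixed at 1 and top fixed at the reference compound's maximal induction.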

For series [3], the system named is SUDHL10. In words: Induction of caspase-3/7 activity (Caspase-Glo 3/7), SUDHL10. The settings on record: caspase-3/7 induction, SUDHL10 cells, 3 h treatment, median. Format: cell-based. Put shortly: as §1
The subject of series [4] is SUDHL10. In words: Anti-proliferative effect (CellTiter-Glo, 72 h), SUDHL10. As to conditions: SUDHL10 cells, antiproliferation, 72 h incubation, median, read-out: Antiproli SUDHL10 [M] (median). Format: cell-based. The gist of the method:
(§2)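 72 h compound treatment, 37 °C humidified; CellTiter-Glo added, 10 min incubation, luminescence read; day 0 plate read in parallel for baseline.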
(In general: In ATP-based viability assays light output follows the ATP content of the culture.)

Series [5] has as its system OPM2. Kind of series: Anti-proliferative effect (CellTiter-Glo, 72 h), OPM2. It is filed as cell-based. The settings on record: OPM2 cells, median, read-out: IC50 antiproliferation assay OPM2 [M] (median). Put shortly: as §2
The test system of series [6] is A2780. In words: Anti-proliferative effect (CellTiter-Glo, 72 h), A2780. It is filed as cell-based. As to conditions: A2780 cells, median, read-out: IC50 antiproliferation assay A2780 [M] (median). Put shortly: as §2
The subject of series [7] is SUDHL5. In words: Induction of cytotoxicity (CellTiter-Glo, 5 h), SUDHL5.
For series [8], the system named is SUDHL10. Kind of series: Induction of cytotoxicity (CellTiter-Glo, 5 h), SUDHL10.
Setting [9] is: Homo sapiens, SU-DHL-5, 5 h, read-out: Cytotox SUDHL5 [M] (median), SUDHL5 cells, cytotoxicity induction, CellTiter-Glo, 5 h incubation, median.
Where [10] appears, read: Homo sapiens, SU-DHL10, 5 h, read-out: Cytotox SUDHL10 [M] (median), SUDHL10 cells, cytotoxicity induction, CellTiter-Glo, 5 h incubation, median.
The mark [11] stands for this setting: read-out: Cytotox SUDHL5 [M] (median), SUDHL5 cells, cytotoxicity induction, CellTiter-Glo, 5 h incubation, median.
Where [12] appears, read: read-out: Cytotox SUDHL10 [M] (median), SUDHL10 cells, cytotoxicity induction, CellTiter-Glo, 5 h incubation, median.

MCL-1, sequence (Q07820 whole entry): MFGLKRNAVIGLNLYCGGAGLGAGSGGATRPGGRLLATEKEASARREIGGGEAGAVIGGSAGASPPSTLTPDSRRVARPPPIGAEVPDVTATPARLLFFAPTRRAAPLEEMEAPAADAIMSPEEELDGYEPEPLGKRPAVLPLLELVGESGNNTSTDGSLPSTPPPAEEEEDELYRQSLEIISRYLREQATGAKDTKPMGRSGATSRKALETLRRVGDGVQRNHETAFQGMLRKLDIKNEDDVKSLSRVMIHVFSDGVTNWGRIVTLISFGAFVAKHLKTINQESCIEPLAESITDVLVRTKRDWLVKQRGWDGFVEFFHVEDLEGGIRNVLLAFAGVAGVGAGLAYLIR

As to `Cn1ncc2c1COCCCCn1c(C(=O)O)c(CCCOc3cccc4ccccc34)c3cccc-2c31` (racemic) [Example 128, (rac)-1-methyl-7-[3-(naphthalen-1-yloxy)propyl]-1,10,11,12,13,15-hexahydropyrazolo[4′,3′:9,10][1,6]oxazacycloundecino[8,7,6-hi]indole-8-carboxylic Acid], the IC50 in series [1] was 0.0403 µM; in series [4] (Homo sapiens, SU-DHL10, 72 h), 1.29e-05 M; in series [5] (Homo sapiens, OPM-2, 72 h), greater than 3.3e-05 M; in series [6] (Homo sapiens, A2780, 72 h), 3.04e-05 M; in series [7] (setting [9]), greater than 3.3e-05 M; in series [8] (setting [10]) it was greater than 3.3e-05 M. The EC50 in series [2] (Homo sapiens, SU-DHL-5, 3 h) is greater than 33 µM; in series [3] (Homo sapiens, SU-DHL10, 3 h), greater than 33 µM.

Turning to `CN1CCCn2c(C(=O)O)c(CCCOc3cccc4ccccc34)c3cccc(c32)-c2c(CNCC(F)(F)F)nn(C)c2C1` (racemic) [Example 129, (rac)-7,9-dimethyl-1-[3-(naphthalen-1-yloxy)propyl]-11-{[(2,2,2-trifluoroethyl)amino]methyl}-4,5,6,7,8,9-hexahydropyrazolo[3′,4′:7,8][1,5]diazecino[9,10,1-hi]indole-2-carboxylic Acid (Racemate)], the IC50 in series [1] was 0.0222 µM; in series [4] (Homo sapiens, SU-DHL10, 72 h) it was 6.99e-06 M; in series [5] (Homo sapiens, OPM-2, 72 h), greater than 3.3e-05 M; in series [6] (Homo sapiens, A2780, 72 h) it was 1.7e-05 M; in series [7] (setting [9]) it was greater than 3.3e-05 M; in series [8] (setting [10]), greater than 3.3e-05 M. The EC50 in series [2] (Homo sapiens, SU-DHL-5, 3 h) is greater than 33 µM; in series [3] (Homo sapiens, SU-DHL10, 3 h), greater than 33 µM.

As for `Cn1nc(CN2CCOCC2)c2c1COCCCn1c(C(=O)O)c(CCCOc3cccc4ccccc34)c3cccc-2c31` (racemic) [Example 138, (rac)-9-methyl-11-(morpholin-4-ylmethyl)-1-[3-(naphthalen-1-yloxy)propyl]-5,6,8,9-tetrahydro-4H-pyrazolo[4′,3′:8,9][1,5]oxazecino[7,6,5-hi]indole-2-carboxylic Acid], the IC50 is 0.0135 µM in series [1]; 1.16e-05 M in series [4] (Homo sapiens, SU-DHL10, 72 h); greater than 3.3e-05 M in series [5] (Homo sapiens, OPM-2, 72 h); greater than 3.3e-05 M in series [6] (Homo sapiens, A2780, 72 h); 1.13e-05 M in series [7] (setting [9]); greater than 3.3e-05 M in series [8] (setting [10]). In addition, the EC50 in series [2] (Homo sapiens, SU-DHL-5, 3 h) was 11.1 µM; in series [3] (Homo sapiens, SU-DHL10, 3 h), greater than 33 µM.

In the case of `CC(C)OCc1nn(C)c2c1-c1cccc3c(CCCOc4cccc5ccccc45)c(C(=O)O)n(c13)CCCN(C)C2` (single isomer, unassigned) [Example 1-71, 7,9-dimethyl-1-[3-(naphthalen-1-yloxy)propyl]-1-[(propan-2-yloxy)methyl]-4,5,6,7,8,9-hexahydropyrazolo[3′,4′:7,8][1,5]diazecino[9,10,1-hi]indole-2-carboxylic Acid], the IC50 is 0.0283 µM in series [1]; 2.13e-05 M in series [4] (Homo sapiens, SU-DHL10, 72 h); 2.57e-05 M in series [5] (Homo sapiens, OPM-2, 72 h); 2.55e-05 M in series [6] (Homo sapiens, A2780, 72 h); 1.98e-05 M and > 3.3e-05 M in series [7] (setting [11]); greater than 3.3e-05 M in series [8] (setting [10]). In addition, the EC50 was greater than 33 µM in series [2] (Homo sapiens, SU-DHL-5, 3 h) and greater than 33 µM in series [3] (Homo sapiens, SU-DHL10, 3 h).

With `CN(C)S(=O)(=O)N1CCN(c2ccc(OCc3nn(C)c4c3-c3cccc5c(CCCOc6cccc7ccccc67)c(C(=O)O)n(c35)CCCCCC4)cc2)CC1` (single isomer, unassigned; enantiomer 2) [Example 1-41, 3-({4-[4-(dimethylsulfamoyl)piperazin-1-yl]phenoxy}methyl)-1-methyl-7-[3-(naphthalen-1-yloxy)propyl]-10,11,12,13,14,15-hexahydro-1H-pyrazolo[4′,3′:4,5]azacycloundecino[3,2,1-hi]indole-8-carboxylic acid-N-ethylethanamine Salt (Enantiomer 2)], the IC50 in series [1] was 0.00106 µM; in series [4] it was 1.1e-06 M; in series [5] it was 2.17e-06 M; in series [6] it was 5.32e-06 M; in series [7] (setting [11]), 7.69e-07 M; in series [8] (setting [12]), 1.52e-06 M. Further, the EC50 in series [2] was found to be 0.723 µM; in series [3], 0.897 µM.

In the case of `Cc1c2c(nn1CCN1CCOCC1)COCCCCn1c(C(=O)O)c(CCCOc3cccc4ccccc34)c3cccc-2c31` (single isomer, unassigned; enantiomer 2) [Example 055, 3-methyl-2-[2-(morpholin-4-yl)ethyl]-7-[3-(naphthalen-1-yloxy)propyl]-2,10,11,12,13,15-hexahydropyrazolo[4′,3′:9,10][1,6]oxazacycloundecino[8,7,6-hi]indole-8-carboxylic acid-N-ethylethanamine Salt (Enantiomer 2)], the IC50 was 0.041 µM in series [1]; 1.17e-05 M in series [4]; greater than 3.3e-05 M in series [5]; greater than 3.3e-05 M in series [6]; greater than 3.3e-05 M in series [7] (setting [11]); greater than 3.3e-05 M in series [8] (setting [12]). In addition, the EC50 in series [2] and in series [3] was greater than 33 µM throughout.

With `COCCn1nc2c(c1CN1CCOCC1)-c1cccc3c(CCCOc4cccc5ccccc45)c(C(=O)O)n(c13)CCCN(C)C2` (single isomer, unassigned; enantiomer 2) [Example 058, 10-(2-methoxyethyl)-7-methyl-11-(morpholin-4-ylmethyl)-1-[3-(naphthalen-1-yloxy)propyl]-4,5,6,7,8,10-hexahydropyrazolo[3′,4′:7,8][1,5]diazecino[9,10,1-hi]indole-2-carboxylic Acid (Enantiomer 2)], the IC50 is 0.116 µM in series [1]; 2.05e-05 M in series [4]; greater than 3.3e-05 M in series [5]; greater than 3.3e-05 M in series [6]; greater than 3.3e-05 M in series [7] (setting [11]); greater than 3.3e-05 M in series [8] (setting [12]). The concentration giving a half-maximal response (EC50) in series [2] and in series [3] was greater than 33 µM throughout.

Take `CC(C)c1c2c(nn1C)CN(C)CCCn1c(C(=O)O)c(CCCOc3cccc4ccccc34)c3cccc-2c31` (single isomer, unassigned; enantiomer 2) [Example 115, 7,10-dimethyl-1-[3-(naphthalen-1-yloxy)propyl]-1-(propan-2-yl)-4,5,6,7,8,10-hexahydropyrazolo[3′,4′:7,8][1,5]diazecino[9,10,1-hi]indole-2-carboxylic Acid (Enantiomer 2)]: the IC50 in series [1] worked out at 0.0829 µM; in series [4], 4.86e-06 M; in series [5] it was 1.9e-05 M; in series [6], 1.19e-05 M; in series [7] (setting [11]), 1.13e-05 M; in series [8] (setting [12]), 1.49e-05 M. Moreover, the EC50 is greater than 33 µM in series [2] and 30.5 µM in series [3].

Consider `COCc1nn(C)c2c1-c1cccc3c(CCCOc4cccc5ccccc45)c(C(=O)O)n(c13)CCCCOC2` (single isomer, unassigned; enantiomer 2) [Example 160, 3-(methoxymethyl)-1-methyl-7-[3-(naphthalen-1-yloxy)propyl]-1,10,11,12,13,15-hexahydropyrazolo[4′,3′:9,10][1,6]oxazacycloundecino[8,7,6-hi]indole-8-carboxylic acid-N-ethylethanamine Salt (Enantiomer 2)], for which the IC50 in series [1] was 0.0208 µM; in series [4] it was 1.49e-05 M; in series [5], greater than 3.3e-05 M; in series [6], greater than 3.3e-05 M; in series [7] (setting [11]) it was 2.05e-05 M; in series [8] (setting [12]), greater than 3.3e-05 M. In addition, the EC50 in series [2] is 17.9 µM; in series [3], greater than 33 µM.

Take `CCOCc1nn(C)c2c1-c1cccc3c(CCCOc4cccc5c4CCCC5)c(C(=O)O)n(c13)CCCCOC2` (single isomer, unassigned; enantiomer 2) [Example 172, 3-(ethoxymethyl)-1-methyl-7-[3-(5,6,7,8-tetrahydronaphthalen-1-yloxy)propyl]-1,10,11,12,13,15-hexahydropyrazolo[4′,3′:9,10][1,6]oxazacycloundecino[8,7,6-hi]indole-8-carboxylic Acid (Enantiomer 2)]: the IC50 is 0.144 µM in series [1]; 1.53e-05 M in series [4]; greater than 3.3e-05 M in series [5]; greater than 3.3e-05 M in series [6]; greater than 3.3e-05 M in series [7] (setting [11]); greater than 3.3e-05 M in series [8] (setting [12]). For the same compound, the EC50 in series [2] and in series [3] was greater than 33 µM in each case.
